# Measured values taken from article PMC5988656, “Phase I studies of AZD1208, a proviral integration Moloney virus kinase inhibitor in solid and haematological cancers” (British Journal of Cancer, 2018).
# Test system: patients with advanced solid tumours
# Assay: Solid tumour dose-escalation study: safety and tolerability (AEs, DLTs)
# Text: Conducted at two UK centres and one in Japan. Dose escalation followed a rolling six design.[14] Patients received a single dose on Day 1 during Cycle 0, followed by a 3-day washout period, after which multiple dosing was initiated. Cycle 1 was a 21-day period from the first dose of multiple dosing.
# The CTCAE (version 4.0) was utilised to grade all AE events.
# AEs were summarised by Medical Dictionary for Regulatory Activities (MedDRA) system organ class, MedDRA preferred term and CTCAE grade. Summary statistics of mean, median, standard deviation, minimum, maximum and number of observations were used.
smiles,measurement,setting,value
N[C@@H]1CCCN(c2c(/C=C3\SC(=O)NC3=O)cccc2-c2ccccc2)C1 [AZD1208],Abdominal pain (all-grade AE),"120 mg, n = 3",0 (0.0) n (%)
same,Anaemia (all-grade AE),"120 mg, n = 3",3 (100.0) n (%)
same,Constipation (all-grade AE),"120 mg, n = 3",0 (0.0) n (%)
same,Decreased appetite (all-grade AE),"120 mg, n = 3",1 (33.3) n (%)
same,Diarrhoea (all-grade AE),"120 mg, n = 3",2 (66.7) n (%)
same,Dry skin (all-grade AE),"120 mg, n = 3",0 (0.0) n (%)
same,Dyspnoea (all-grade AE),"120 mg, n = 3",0 (0.0) n (%)
same,Fatigue (all-grade AE),"120 mg, n = 3",0 (0.0) n (%)
same,GGT increased (all-grade AE),"120 mg, n = 3",0 (0.0) n (%)
same,Hyperglycaemia (all-grade AE),"120 mg, n = 3",1 (33.3) n (%)
same,Hypoalbuminaemia (all-grade AE),"120 mg, n = 3",1 (33.3) n (%)
same,Hypokalaemia (all-grade AE),"120 mg, n = 3",0 (0.0) n (%)
same,Hyponatraemia (all-grade AE),"120 mg, n = 3",0 (0.0) n (%)
same,Insomnia (all-grade AE),"120 mg, n = 3",0 (0.0) n (%)
same,Musculoskeletal chest pain (all-grade AE),"120 mg, n = 3",0 (0.0) n (%)
same,Nausea (all-grade AE),"120 mg, n = 3",1 (33.3) n (%)
same,Patients with any AE (all-grade AE),"120 mg, n = 3",3 (100.0) n (%)
same,Platelet count decreased (all-grade AE),"120 mg, n = 3",2 (66.7) n (%)
same,Pyrexia (all-grade AE),"120 mg, n = 3",0 (0.0) n (%)
same,Thrombocytopenia (all-grade AE),"120 mg, n = 3",0 (0.0) n (%)
same,Vomiting (all-grade AE),"120 mg, n = 3",0 (0.0) n (%)
same,White blood cell count decreased (all-grade AE),"120 mg, n = 3",2 (66.7) n (%)
same,Patients requiring dose interruptions because of AEs,240 mg,2 n
same,Patients with CTCAE grade ≥3 AEs causally related to AZD1208,"240 mg (anaemia, alanine transaminase increased, GGT increased)",3 n
same,Abdominal pain (all-grade AE),"240 mg, n = 7",3 (42.9) n (%)
same,Anaemia (all-grade AE),"240 mg, n = 7",4 (57.1) n (%)
same,Constipation (all-grade AE),"240 mg, n = 7",0 (0.0) n (%)
same,"DLT detail, action taken","240 mg, n = 7","GGT increased, drug interrupted"
same,Decreased appetite (all-grade AE),"240 mg, n = 7",3 (42.9) n (%)
same,Diarrhoea (all-grade AE),"240 mg, n = 7",5 (71.4) n (%)
same,Dry skin (all-grade AE),"240 mg, n = 7",3 (42.9) n (%)
same,Dyspnoea (all-grade AE),"240 mg, n = 7",1 (14.3) n (%)
same,Fatigue (all-grade AE),"240 mg, n = 7",2 (28.6) n (%)
same,GGT increased (all-grade AE),"240 mg, n = 7",2 (28.6) n (%)
same,Hyperglycaemia (all-grade AE),"240 mg, n = 7",0 (0.0) n (%)
same,Hypoalbuminaemia (all-grade AE),"240 mg, n = 7",2 (28.6) n (%)
same,Hypokalaemia (all-grade AE),"240 mg, n = 7",0 (0.0) n (%)
same,Hyponatraemia (all-grade AE),"240 mg, n = 7",0 (0.0) n (%)
same,Insomnia (all-grade AE),"240 mg, n = 7",1 (14.3) n (%)
same,Musculoskeletal chest pain (all-grade AE),"240 mg, n = 7",0 (0.0) n (%)
same,Nausea (all-grade AE),"240 mg, n = 7",6 (85.7) n (%)
same,Patients with any AE (all-grade AE),"240 mg, n = 7",7 (100.0) n (%)
same,Platelet count decreased (all-grade AE),"240 mg, n = 7",2 (28.6) n (%)
same,Pyrexia (all-grade AE),"240 mg, n = 7",1 (14.3) n (%)
same,Thrombocytopenia (all-grade AE),"240 mg, n = 7",0 (0.0) n (%)
same,Vomiting (all-grade AE),"240 mg, n = 7",6 (85.7) n (%)
same,White blood cell count decreased (all-grade AE),"240 mg, n = 7",3 (42.9) n (%)
same,Patients requiring dose interruptions because of AEs,360 mg,3 n
same,Patients with CTCAE grade ≥3 AEs causally related to AZD1208,360 mg (lymphocyte decreased),1 n
same,Abdominal pain (all-grade AE),"360 mg, n = 6",2 (33.3) n (%)
same,Anaemia (all-grade AE),"360 mg, n = 6",2 (33.3) n (%)
same,Constipation (all-grade AE),"360 mg, n = 6",3 (50.0) n (%)
same,Decreased appetite (all-grade AE),"360 mg, n = 6",2 (33.3) n (%)
same,Diarrhoea (all-grade AE),"360 mg, n = 6",5 (83.3) n (%)
same,Dry skin (all-grade AE),"360 mg, n = 6",1 (16.7) n (%)
same,Dyspnoea (all-grade AE),"360 mg, n = 6",2 (33.3) n (%)
same,Fatigue (all-grade AE),"360 mg, n = 6",3 (50.0) n (%)
same,GGT increased (all-grade AE),"360 mg, n = 6",1 (16.7) n (%)
same,Hyperglycaemia (all-grade AE),"360 mg, n = 6",1 (16.7) n (%)
same,Hypoalbuminaemia (all-grade AE),"360 mg, n = 6",2 (33.3) n (%)
same,Hypokalaemia (all-grade AE),"360 mg, n = 6",0 (0.0) n (%)
same,Hyponatraemia (all-grade AE),"360 mg, n = 6",1 (16.7) n (%)
same,Insomnia (all-grade AE),"360 mg, n = 6",1 (16.7) n (%)
same,Musculoskeletal chest pain (all-grade AE),"360 mg, n = 6",2 (33.3) n (%)
same,Nausea (all-grade AE),"360 mg, n = 6",3 (50.0) n (%)
same,Patients with any AE (all-grade AE),"360 mg, n = 6",6 (100.0) n (%)
same,Platelet count decreased (all-grade AE),"360 mg, n = 6",1 (16.7) n (%)
same,Pyrexia (all-grade AE),"360 mg, n = 6",3 (50.0) n (%)
same,Thrombocytopenia (all-grade AE),"360 mg, n = 6",2 (33.3) n (%)
same,Vomiting (all-grade AE),"360 mg, n = 6",1 (16.7) n (%)
same,White blood cell count decreased (all-grade AE),"360 mg, n = 6",1 (16.7) n (%)
same,Patients requiring dose interruptions because of AEs,540 mg,6 n
same,Patients with CTCAE grade ≥3 AEs causally related to AZD1208,"540 mg (vomiting, fatigue, lethargy)",2 n
same,Abdominal pain (all-grade AE),"540 mg, n = 7",2 (28.6) n (%)
same,Anaemia (all-grade AE),"540 mg, n = 7",4 (57.1) n (%)
same,Constipation (all-grade AE),"540 mg, n = 7",0 (0.0) n (%)
same,"DLT detail, action taken","540 mg, n = 7","Vomiting, drug permanently discontinued"
same,Decreased appetite (all-grade AE),"540 mg, n = 7",4 (57.1) n (%)
same,Diarrhoea (all-grade AE),"540 mg, n = 7",6 (85.7) n (%)
same,Dry skin (all-grade AE),"540 mg, n = 7",2 (28.6) n (%)
same,Dyspnoea (all-grade AE),"540 mg, n = 7",1 (14.3) n (%)
same,Fatigue (all-grade AE),"540 mg, n = 7",3 (42.9) n (%)
same,GGT increased (all-grade AE),"540 mg, n = 7",2 (28.6) n (%)
same,Hyperglycaemia (all-grade AE),"540 mg, n = 7",4 (57.1) n (%)
same,Hypoalbuminaemia (all-grade AE),"540 mg, n = 7",1 (14.3) n (%)
same,Hypokalaemia (all-grade AE),"540 mg, n = 7",2 (28.6) n (%)
same,Hyponatraemia (all-grade AE),"540 mg, n = 7",3 (42.9) n (%)
same,Insomnia (all-grade AE),"540 mg, n = 7",1 (14.3) n (%)
same,Musculoskeletal chest pain (all-grade AE),"540 mg, n = 7",1 (14.3) n (%)
same,Nausea (all-grade AE),"540 mg, n = 7",7 (100.0) n (%)
same,Patients with any AE (all-grade AE),"540 mg, n = 7",7 (100.0) n (%)
same,Platelet count decreased (all-grade AE),"540 mg, n = 7",2 (28.6) n (%)
same,Pyrexia (all-grade AE),"540 mg, n = 7",0 (0.0) n (%)
same,Thrombocytopenia (all-grade AE),"540 mg, n = 7",1 (14.3) n (%)
same,Vomiting (all-grade AE),"540 mg, n = 7",5 (71.4) n (%)
